The values below come from BindingDB's records for patent US10654860 (Bristol Myers Squibb, 2020).

For the assay, the target named is Rho-associated protein kinase 2 (Homo sapiens, UniProt O75116). The assay can be described thus: In Vitro Assay. Here is the method: The effectiveness of compounds of the present invention as ROCK inhibitors can be determined in a 30 μL, assay containing 20 mM HEPES, pH 7.5, 20 mM MgCl2, 0.015% Brij-35, 4 mM DTT, 5 μM ATP and 1.5 μM peptide substrate (FITC-AHA-AKRRRLSSLRA-OH). Compounds were dissolved in DMSO so that the final concentration of DMSO was <2%, and the reaction was initiated with Rho kinase variants. After incubation, the reaction was terminated by the addition of EDTA and the phosphorylated and non-phosphorylated peptides separated using a LABCHIP 3000 Reader (Caliper Life Sciences). […] Compounds were tested in dose-response format, and the inhibition of kinase activity was calculated at each concentration of compound.
Chain of Rho-associated protein kinase 2 (O75116 whole entry): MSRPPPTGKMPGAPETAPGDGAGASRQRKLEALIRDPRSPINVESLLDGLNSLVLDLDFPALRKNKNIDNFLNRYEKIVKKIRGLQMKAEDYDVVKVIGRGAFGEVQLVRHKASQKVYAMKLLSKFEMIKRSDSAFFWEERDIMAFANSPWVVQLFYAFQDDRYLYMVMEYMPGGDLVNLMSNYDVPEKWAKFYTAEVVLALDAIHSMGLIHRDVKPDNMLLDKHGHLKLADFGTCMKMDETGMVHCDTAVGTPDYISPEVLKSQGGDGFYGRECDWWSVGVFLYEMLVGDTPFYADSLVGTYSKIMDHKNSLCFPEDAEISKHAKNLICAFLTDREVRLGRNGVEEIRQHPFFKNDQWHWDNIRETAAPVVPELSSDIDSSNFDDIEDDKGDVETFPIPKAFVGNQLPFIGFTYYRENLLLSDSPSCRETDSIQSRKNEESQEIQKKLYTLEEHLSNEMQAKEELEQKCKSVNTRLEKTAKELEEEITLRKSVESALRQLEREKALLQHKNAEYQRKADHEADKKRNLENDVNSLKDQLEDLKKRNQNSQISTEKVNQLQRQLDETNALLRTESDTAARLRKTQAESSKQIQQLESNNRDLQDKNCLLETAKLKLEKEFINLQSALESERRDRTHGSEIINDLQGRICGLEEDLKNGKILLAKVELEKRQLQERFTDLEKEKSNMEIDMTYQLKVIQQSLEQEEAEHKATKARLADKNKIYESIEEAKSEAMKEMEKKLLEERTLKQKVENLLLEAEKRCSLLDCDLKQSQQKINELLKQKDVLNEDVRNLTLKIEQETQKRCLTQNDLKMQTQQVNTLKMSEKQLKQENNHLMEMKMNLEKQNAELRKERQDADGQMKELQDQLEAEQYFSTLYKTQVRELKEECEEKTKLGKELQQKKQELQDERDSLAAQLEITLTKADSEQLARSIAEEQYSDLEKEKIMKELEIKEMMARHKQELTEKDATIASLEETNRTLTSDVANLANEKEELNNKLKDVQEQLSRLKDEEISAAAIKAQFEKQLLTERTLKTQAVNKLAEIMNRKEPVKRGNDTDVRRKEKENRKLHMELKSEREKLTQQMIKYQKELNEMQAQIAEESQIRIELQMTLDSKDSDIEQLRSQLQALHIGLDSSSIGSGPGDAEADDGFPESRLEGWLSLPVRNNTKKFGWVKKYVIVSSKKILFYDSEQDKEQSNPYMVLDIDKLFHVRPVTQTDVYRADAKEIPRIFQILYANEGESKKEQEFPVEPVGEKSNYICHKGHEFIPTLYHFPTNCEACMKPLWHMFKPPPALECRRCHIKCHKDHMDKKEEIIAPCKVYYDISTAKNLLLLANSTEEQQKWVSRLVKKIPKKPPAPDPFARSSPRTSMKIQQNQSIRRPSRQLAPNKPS

pIC50: −log10 of the molar value. Bounds are passed on as bounds.

For `N[C@H](CCc1ccccc1)C(=O)Nc1ccc2c(c1)CCc1n[nH]cc1-2` [US10654860, Example 4], the negative logarithm of the IC50 (pIC50) (commonly the negative decadic logarithm of the IC50, by convention in mol/L) was above 8.00.
